Assay results published in ChEMBL document CHEMBL4219268, “Synthesis and evaluation of N-(4-benzylphenyl)piperazines as VGF inducers” (Bioorg Med Chem Lett, 2018).

How the values were obtained:
CYP3A4 = CYP3A4 (Homo sapiens, UniProt P08684); experiment: Inhibition of CYP3A4 in human liver microsomes using testosterone as substrate assessed as residual activity at 10 uM preincubated for 30 mins followed by substrate addition measured after 10 mins in presence of NADPH by LC-MS/MS analysis; type: ADME; conditions: probe testosterone, read-out: Activity
SH-SY5Y [1] = experiment: Cytoprotective activity against tunicamycin-induced ER stress in human SH-SY5Y cells assessed as cell viability at 3 uM preincubated for 1 hr followed by tunicamycin addition measured after 48 hrs by WST-8 assay (reference value: 45 +/- 6.6%); type: functional; conditions: read-out: Activity
SH-SY5Y [2] = experiment: Induction of VGF gene expression in human SH-SY5Y cells at 3 uM after 24 hrs by qRT-PCR analysis relative to control; type: functional
[3] = Drug metabolism in human liver microsomes assessed as metabolic rate per mg protein at 1 uM measured at 3 to 30 mins by LC-MS/MS analysis; type: ADME, microsome
SH-SY5Y [4] = experiment: Induction of VGF gene expression in human SH-SY5Y cells at 3 uM after 24 hrs by qRT-PCR analysis relative to SUN N8075; type: functional
SH-SY5Y [5] = experiment: Cytoprotective activity against tunicamycin-induced ER stress in human SH-SY5Y cells assessed as cell viability at 3 uM preincubated for 1 hr followed by tunicamycin addition measured after 48 hrs by WST-8 assay relative to SUN N8075; type: functional; conditions: read-out: Activity

Sequence of CYP3A4 (P08684 whole entry): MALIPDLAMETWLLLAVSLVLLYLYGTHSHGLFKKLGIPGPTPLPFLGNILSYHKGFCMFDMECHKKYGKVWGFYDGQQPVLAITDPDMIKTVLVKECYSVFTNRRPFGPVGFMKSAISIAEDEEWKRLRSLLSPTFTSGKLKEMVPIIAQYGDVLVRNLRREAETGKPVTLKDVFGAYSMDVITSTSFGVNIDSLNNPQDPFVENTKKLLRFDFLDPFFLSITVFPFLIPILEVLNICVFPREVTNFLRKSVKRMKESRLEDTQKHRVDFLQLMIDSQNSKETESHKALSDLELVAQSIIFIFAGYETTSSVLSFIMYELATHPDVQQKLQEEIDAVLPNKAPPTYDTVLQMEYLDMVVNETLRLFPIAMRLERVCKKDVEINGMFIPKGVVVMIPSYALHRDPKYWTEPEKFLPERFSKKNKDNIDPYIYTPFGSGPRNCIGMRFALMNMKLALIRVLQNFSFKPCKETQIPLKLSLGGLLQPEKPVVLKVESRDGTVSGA

Row | activity at 10 min, 10 µM (CYP3A4) | Drug metabolism [3] | SMILES | viability at 3 µM (SH-SY5Y [1]) | fold change (FC) (SH-SY5Y [2]) | Activity (SH-SY5Y [4]) | viability at 3 µM (SH-SY5Y [5])
1 | 57% | 153 pmol/min | CS(=O)(=O)O.CS(=O)(=O)O.Cc1cc(OCC(O)CN2CCN(c3ccc(Cc4ccc(F)cc4)cc3)CC2)c(C)c(C)c1N (stereo unspecified) | 82% | 5.1 | – | –
2 | 108% | 17 pmol/min | Cc1cc(S(N)(=O)=O)ccc1OCC(F)CN1CCN(c2ccc(Cc3ccc(F)cc3)cc2)CC1 (stereo unspecified) | – | – | 114% | 105%
3 | 76% | 34 pmol/min | NC(=O)c1ccc(OCC(F)CN2CCN(c3ccc(Cc4ccc(F)cc4)cc3)CC2)cc1 (stereo unspecified) | – | – | 20% | 21%
4 | 93% | 34 pmol/min | Cl.Cl.Cl.Fc1ccc(Cc2ccc(N3CCN(CC(F)(F)COc4ccc5ncccc5c4)CC3)cc2)cc1 | – | – | 68% | 67%
5 | 94% | 47 pmol/min | Cl.Fc1ccc(Cc2ccc(N3CCN(CCCOc4ccc5ncccc5c4)CC3)cc2)cc1 | – | – | 52% | 75%
6 | 70% | 122 pmol/min | OC(COc1ccc2ncccc2c1)CN1CCN(c2ccc(Cc3ccc(F)cc3)cc2)CC1 (stereo unspecified) | – | – | 36% | 64%
7 | 88% | 27 pmol/min | O=C1CCc2cc(OCC(O)CN3CCN(c4ccc(Cc5ccc(F)cc5)cc4)CC3)ccc2N1 (stereo unspecified) | – | – | 32% | 33%
8 | 59% | 79 pmol/min | OC(COc1ccc2[nH]ccc2c1)CN1CCN(c2ccc(Cc3ccc(F)cc3)cc2)CC1 (stereo unspecified) | – | – | 30% | 43%
9 | – | 28 pmol/min | Cl.OC(COc1ccccc1)CN1CCN(c2ccc(Cc3ccc(F)cc3)cc2)CC1 (stereo unspecified) | – | – | 8% | 43%
10 | 99% | 12 pmol/min | NS(=O)(=O)c1ccc(OCC(F)CN2CCN(c3ccc(Cc4ccc(F)cc4)cc3)CC2)cc1 (stereo unspecified) | – | – | 71% | 88%
11 | 92% | 32 pmol/min | Cc1cc(S(N)(=O)=O)c(C)c(C)c1OCC(F)CN1CCN(c2ccc(Cc3ccc(F)cc3)cc2)CC1 (stereo unspecified) | – | – | 172% | 106%

Row | SMILES | activity at 10 min, 10 µM (CYP3A4) | Drug metabolism [3] | viability at 3 µM (SH-SY5Y [1]) | fold change (FC) (SH-SY5Y [2]) | Activity (SH-SY5Y [4]) | viability at 3 µM (SH-SY5Y [5])
12 | Cl.Cl.Cl.Fc1ccc(Cc2ccc(N3CCN(CC(F)COc4ccncc4)CC3)cc2)cc1 (stereo unspecified) | 101% | < 10 pmol/min | – | – | 13% | 13%
13 | Cc1cc(OCC(F)CN2CCN(c3ccc(Cc4ccc(F)cc4)cc3)CC2)cc(C)n1.Cl.Cl.Cl (stereo unspecified) | 67% | 41 pmol/min | – | – | 79% | 82%
14 | Cc1cc(OC[C@@H](F)CN2CCN(c3ccc(Cc4ccc(F)cc4)cc3)CC2)cc(C)n1.Cl | 80% | 37 pmol/min | – | – | 68% | 96%
15 | Cc1cc(OC[C@H](F)CN2CCN(c3ccc(Cc4ccc(F)cc4)cc3)CC2)cc(C)n1.Cl | 83% | 71 pmol/min | – | – | 78% | 93%
16 | Cc1cc(OCC(F)CN2CCN(c3ccc(Cc4ccc(F)cc4)cc3)CC2)c(C)c(C)c1N.Cl.Cl.Cl (stereo unspecified) | 75% | 106 pmol/min | – | – | 126% | 94%
17 | Cc1cc(C)c(C)c(OCC(F)CN2CCN(c3ccc(Cc4ccc(F)cc4)cc3)CC2)c1.Cl.Cl (stereo unspecified) | 107% | 25 pmol/min | – | – | 75% | 60%
18 | Cl.Cl.Cl.Fc1ccc(Cc2ccc(N3CCN(CC(F)COc4ccc5ncccc5c4)CC3)cc2)cc1 (stereo unspecified) | 82% | 79 pmol/min | – | – | 77% | 89%
